In the supplement of paper PMC10307832:

Columns and labels:
Assay in all cases: relative viability (nuclei count vs DMSO), 5 days (fraction); higher = more cells survive
ChaGo-K-1 = system: ChaGo-K-1
How it was run: (§1)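 The day after seeding in 1536-well plates, lung cancer cell lines were treated by pin tool with a single drug, or with a fixed anchor-drug dose together with five library-drug doses (not always all listed) in √10 steps. After 5 days, a combined fix-and-stain solution (final 0.05% Triton X-100, 1% formaldehyde, 1 ug/ml Hoechst) was added. Nuclei counted on 4× images gave relative viability as treated counts over vehicle counts, reported as the median of duplicate plates.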

EMC-BAC-2 = system: EMC-BAC-2
How it was run: as §1

EPLC-272H = system: EPLC-272H
How it was run: as §1

HCC-44 = system: HCC-44
How it was run: as §1

HOP-62 = system: HOP-62
How it was run: as §1

LCLC-103H = system: LCLC-103H
How it was run: as §1

LCLC-97TM1 = system: LCLC-97TM1
How it was run: as §1

LOU-NH91 = system: LOU-NH91
How it was run: as §1

NCI-H1395 = system: NCI-H1395
How it was run: as §1

NCI-H1975 = system: NCI-H1975
How it was run: as §1

NCI-H1993 = system: NCI-H1993
How it was run: as §1

NCI-H2085 = system: NCI-H2085
How it was run: as §1

NCI-H2126 = system: NCI-H2126
How it was run: as §1

NCI-H2170 = system: NCI-H2170
How it was run: as §1

NCI-H2228 = system: NCI-H2228
How it was run: as §1

NCI-H2342 = system: NCI-H2342
How it was run: as §1

NCI-H2405 = system: NCI-H2405
How it was run: as §1

NCI-H3122 = system: NCI-H3122
How it was run: as §1

NCI-H322M = system: NCI-H322M
How it was run: as §1

NCI-H460 = system: NCI-H460
How it was run: as §1

NCI-H520 = system: NCI-H520
How it was run: as §1

NCI-H647 = system: NCI-H647
How it was run: as §1

SK-LU-1 = system: SK-LU-1
How it was run: as §1

C=C1C(=O)O[C@@H](CCCCCCCC)[C@@H]1C(=O)O [C-75] + O=C(CCCCCCC(=O)Nc1ccccc1)NO [Vorinostat] (partner 1 µM)
relative viability (ChaGo-K-1; first compound 0.08 µM): 0.759 | relative viability (ChaGo-K-1; first compound 0.253 µM): 0.772 | relative viability (ChaGo-K-1; first compound 0.8 µM): 0.701 | relative viability (ChaGo-K-1; first compound 2.53 µM): 0.609 | relative viability (ChaGo-K-1; first compound 8 µM): 0.668 | relative viability (EMC-BAC-2; first compound 0.08 µM): 0.462 | relative viability (EMC-BAC-2; first compound 0.253 µM): 0.407 | relative viability (EMC-BAC-2; first compound 0.8 µM): 0.276 | relative viability (EMC-BAC-2; first compound 2.53 µM): 0.355 | relative viability (EMC-BAC-2; first compound 8 µM): 0.378 | relative viability (EPLC-272H; first compound 0.08 µM): 0.477 | relative viability (EPLC-272H; first compound 0.253 µM): 0.545 | relative viability (EPLC-272H; first compound 0.8 µM): 0.655 | relative viability (EPLC-272H; first compound 2.53 µM): 0.41 | relative viability (EPLC-272H; first compound 8 µM): 0.391 | relative viability (HCC-44; first compound 0.08 µM): 1.1 | relative viability (HCC-44; first compound 0.253 µM): 0.994 | relative viability (HCC-44; first compound 0.8 µM): 1.07 | relative viability (HCC-44; first compound 2.53 µM): 1.13 | relative viability (HCC-44; first compound 8 µM): 1.07 | relative viability (HOP-62; first compound 0.08 µM): 0.563 | relative viability (HOP-62; first compound 0.253 µM): 0.834 | relative viability (HOP-62; first compound 0.8 µM): 0.629 | relative viability (HOP-62; first compound 2.53 µM): 0.478 | relative viability (HOP-62; first compound 8 µM): 0.449 | relative viability (LCLC-103H; first compound 0.08 µM): 0.736 | relative viability (LCLC-103H; first compound 0.253 µM): 0.758 | relative viability (LCLC-103H; first compound 0.8 µM): 0.708 | relative viability (LCLC-103H; first compound 2.53 µM): 0.664 | relative viability (LCLC-103H; first compound 8 µM): 0.765 | relative viability (LCLC-97TM1; first compound 0.08 µM): 0.864 | relative viability (LCLC-97TM1; first compound 0.253 µM): 0.817 | relative viability (LCLC-97TM1; first compound 0.8 µM): 0.49 | relative viability (LCLC-97TM1; first compound 2.53 µM): 0.413 | relative viability (LCLC-97TM1; first compound 8 µM): 0.455 | relative viability (LOU-NH91; first compound 0.08 µM): 0.939 | relative viability (LOU-NH91; first compound 0.253 µM): 0.939 | relative viability (LOU-NH91; first compound 0.8 µM): 0.828 | relative viability (LOU-NH91; first compound 8 µM): 0.898 | relative viability (NCI-H1395; first compound 0.08 µM): 0.649 | relative viability (NCI-H1395; first compound 0.253 µM): 0.768 | relative viability (NCI-H1395; first compound 2.53 µM): 0.634 | relative viability (NCI-H1395; first compound 8 µM): 0.711 | relative viability (NCI-H1975; first compound 0.08 µM): 0.757 | relative viability (NCI-H1975; first compound 0.253 µM): 0.733 | relative viability (NCI-H1975; first compound 0.8 µM): 0.761 | relative viability (NCI-H1975; first compound 2.53 µM): 0.718 | relative viability (NCI-H1975; first compound 8 µM): 0.742 | relative viability (NCI-H1993; first compound 0.08 µM): 0.719 | relative viability (NCI-H1993; first compound 0.253 µM): 0.842 | relative viability (NCI-H1993; first compound 0.8 µM): 0.616 | relative viability (NCI-H1993; first compound 2.53 µM): 0.715 | relative viability (NCI-H1993; first compound 8 µM): 0.657 | relative viability (NCI-H2085; first compound 0.08 µM): 0.801 | relative viability (NCI-H2085; first compound 0.253 µM): 0.749 | relative viability (NCI-H2085; first compound 0.8 µM): 0.752 | relative viability (NCI-H2085; first compound 2.53 µM): 0.664 | relative viability (NCI-H2085; first compound 8 µM): 0.738 | relative viability (NCI-H2126; first compound 0.08 µM): 0.721 | relative viability (NCI-H2126; first compound 0.253 µM): 0.92 | relative viability (NCI-H2126; first compound 0.8 µM): 0.792 | relative viability (NCI-H2126; first compound 2.53 µM): 0.642 | relative viability (NCI-H2126; first compound 8 µM): 0.744 | relative viability (NCI-H2170; first compound 0.08 µM): 0.803 | relative viability (NCI-H2170; first compound 0.253 µM): 0.961 | relative viability (NCI-H2170; first compound 0.8 µM): 0.714 | relative viability (NCI-H2170; first compound 2.53 µM): 0.697 | relative viability (NCI-H2170; first compound 8 µM): 0.808 | relative viability (NCI-H2228; first compound 0.08 µM): 0.617 | relative viability (NCI-H2228; first compound 0.253 µM): 0.681 | relative viability (NCI-H2228; first compound 0.8 µM): 0.661 | relative viability (NCI-H2228; first compound 2.53 µM): 0.67 | relative viability (NCI-H2228; first compound 8 µM): 0.562 | relative viability (NCI-H2342; first compound 0.08 µM): 0.695 | relative viability (NCI-H2342; first compound 0.253 µM): 0.728 | relative viability (NCI-H2342; first compound 0.8 µM): 0.71 | relative viability (NCI-H2342; first compound 2.53 µM): 0.727 | relative viability (NCI-H2342; first compound 8 µM): 0.736 | relative viability (NCI-H2405; first compound 0.08 µM): 1 | relative viability (NCI-H2405; first compound 0.253 µM): 0.831 | relative viability (NCI-H2405; first compound 0.8 µM): 0.313 | relative viability (NCI-H2405; first compound 2.53 µM): 0.708 | relative viability (NCI-H2405; first compound 8 µM): 0.891 | relative viability (NCI-H3122; first compound 0.08 µM): 1.02 | relative viability (NCI-H3122; first compound 0.253 µM): 1.6 | relative viability (NCI-H3122; first compound 0.8 µM): 1.01 | relative viability (NCI-H3122; first compound 2.53 µM): 0.578 | relative viability (NCI-H3122; first compound 8 µM): 0.989 | relative viability (NCI-H322M; first compound 0.08 µM): 0.859 | relative viability (NCI-H322M; first compound 0.253 µM): 1.32 | relative viability (NCI-H322M; first compound 0.8 µM): 0.851 | relative viability (NCI-H322M; first compound 8 µM): 0.847 | relative viability (NCI-H460; first compound 0.08 µM): 0.698 | relative viability (NCI-H460; first compound 0.253 µM): 0.882 | relative viability (NCI-H460; first compound 0.8 µM): 0.688 | relative viability (NCI-H460; first compound 2.53 µM): 0.58 | relative viability (NCI-H460; first compound 8 µM): 0.674 | relative viability (NCI-H520; first compound 0.08 µM): 0.647 | relative viability (NCI-H520; first compound 0.253 µM): 0.716 | relative viability (NCI-H520; first compound 0.8 µM): 0.637 | relative viability (NCI-H520; first compound 2.53 µM): 0.577 | relative viability (NCI-H520; first compound 8 µM): 0.592 | relative viability (NCI-H647; first compound 0.08 µM): 0.47 | relative viability (NCI-H647; first compound 0.253 µM): 0.873 | relative viability (NCI-H647; first compound 0.8 µM): 0.638 | relative viability (NCI-H647; first compound 2.53 µM): 0.464 | relative viability (NCI-H647; first compound 8 µM): 0.486 | relative viability (SK-LU-1; first compound 0.08 µM): 0.782 | relative viability (SK-LU-1; first compound 0.253 µM): 0.724 | relative viability (SK-LU-1; first compound 0.8 µM): 0.698 | relative viability (SK-LU-1; first compound 2.53 µM): 0.752 | relative viability (SK-LU-1; first compound 8 µM): 0.59
